Read-outs that look alike come from different tables or passages of the source.
Columns and labels:
Type in all cases: in vivo
[1] = tested on: southern armyworm (Spodopetra eridania Cramer); experiment: Mite/insect screen, sprayed squash leaves (SAW); conditions: Spodoptera eridania, percent mortality, read-out: SAW RESULTS %; for mortality at 200 ppm: spray rate 200 ppm
Method in brief: (§1)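 Compounds were dissolved in 50:50 acetone/alcohol containing sulfonate/nonionic emulsifier blends (23 g and 13 g per liter) and diluted with water to test concentrations. Leaves were sprayed on both surfaces to runoff and dried for one hour. Percent mortality and phytotoxicity were scored after standard exposure periods.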

[2] = tested on: Botrytis cinerea (gray mold); experiment: Greenhouse Test 1, foliar spray fungicide screen (GRAY MOLD), host grape berries; conditions: disease control rating, 400 ppm (+++ at 100 ppm)
[3] = tested on: Pseudoperonospora cubensis (downy mildew); experiment: Greenhouse Test 1, foliar spray fungicide screen (DOWN MDEW), host squash; conditions: disease control rating, 400 ppm (+++ at 100 ppm)
[4] = tested on: Southern corn rootworm (Diabrotica undecimpuctata howardi Barber); experiment: Mite/insect screen, soil treatment (CRW); conditions: Diabrotica, percent mortality, soil treatment, read-out: CRW RESULTS %; for mortality at 12 ppm: CRW rate 12.00 ppm
Method in brief: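 Compounds dissolved in acetone/alcohol (50:50) with Toximul R/S emulsifiers, diluted with water. Soil (15 g, with presoaked corn seed) treated with 1 mL test solution, dried 6–12 h, then five 2–3 instar larvae added; held at 23°C. Percent mortality and phytotoxicity scored after standard exposure periods.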

[5] = tested on: Twospotted spider mites (Tetranychus urticae Koch); experiment: Mite/insect screen, sprayed squash cotyledons (SM); conditions: Tetranychus urticae, percent mortality, read-out: SM RESULTS %; for mortality at 200 ppm: spray rate 200 ppm
Method in brief: as §1

[6] = tested on: melon aphids (Aphis gossypii Glover); experiment: Mite/insect screen, sprayed squash cotyledons (MA); conditions: Aphis gossypii, percent mortality, read-out: MA RESULTS %; for mortality at 200 ppm: spray rate 200 ppm
Method in brief: as §1

[7] = tested on: Erysiphe graminis tritici (powdery mildew); experiment: Greenhouse Test 1, foliar spray fungicide screen (POWD MDEW), host wheat; conditions: disease control rating, 400 ppm (+++ at 100 ppm)
[8] = tested on: Puccinia recondita tritici (leaf rust); experiment: Greenhouse Test 1, foliar spray fungicide screen (LEAF RUST), host wheat; conditions: disease control rating, 400 ppm (+++ at 100 ppm)
[9] = tested on: Pyricularia oryzae (rice blast); conditions: disease control rating, foliar spray, host rice; 400 ppm (+++ at 100 ppm)

SMILES | mortality at 400 ppm ([1]; Southern armyworm, sprayed squash leaves, RATE 400 PPM) | mortality at 200 ppm [1] | GRAY MOLD [2] | DOWN MDEW [3] | mortality at 24 ppm ([4]; corn rootworm, CRW RATE 24.00 PPM) | mortality at 12 ppm [4] | mortality at 400 ppm ([5]; twospotted spider mites, sprayed squash cotyledons, RATE 400 PPM) | mortality at 200 ppm [5] | mortality at 400 ppm ([6]; melon aphids, sprayed squash cotyledons, RATE 400 PPM) | mortality at 200 ppm [6] | POWD MDEW [7] | LEAF RUST [8] | RICE BLAST [9] | mortality at 400 ppm ([1]; spray rate 400 ppm) | mortality at 24 ppm ([4]; CRW rate 24.00 ppm) | mortality at 400 ppm ([5]; spray rate 400 ppm) | mortality at 400 ppm ([6]; spray rate 400 ppm)
Fc1ccccc1Oc1ccc(CCOc2ncnc3c(F)cccc23)cc1 [Example 198, 8-fluoro-4-[2-[4-(2-fluorophenoxy)phenyl]ethoxy]quinazoline] | 100% | 100% | - (- = 0-19% control at 400 ppm) | +++ (+++ = 90-100% control at 100 ppm) | 0% | 0% | 0% | 100% | 0% | 100% | +++ (+++ = 90-100% control at 100 ppm) | +++ (+++ = 90-100% control at 100 ppm) | +++ (+++ = 90-100% control at 100 ppm) |  |  |  | 
Fc1cccc2c(OCCc3ccc(Oc4ccccc4)cc3)ncnc12 [Example 10, 8-fluoro-4-[2-(4-phenoxyphenyl)ethoxy]quinazoline] |  |  | - (- = 0-19% control at 400 ppm) | +++ (+++ = 90-100% control at 100 ppm) |  |  |  |  |  |  | +++ (+++ = 90-100% control at 100 ppm) | +++ (+++ = 90-100% control at 100 ppm) | +++ (+++ = 90-100% control at 100 ppm) | 100% | 0% | 0% | 0%
Clc1ccc2c(NCCc3cccc(Oc4ccccc4)c3)ncnc2c1 [Example 171, 7-chloro-N-[2-(3-phenoxyphenyl)ethyl]-4-quinazolinamine] |  | 0% | - (- = 0-19% control at 400 ppm) | +++ (+++ = 90-100% control at 100 ppm) |  | 0% |  | 20% |  | 80% | +++ (+++ = 90-100% control at 100 ppm) | +++ (+++ = 90-100% control at 100 ppm) | +++ (+++ = 90-100% control at 100 ppm) | 0% | 0% | 40% | 80%
c1ccc(Oc2ccccc2CCNc2ncnc3ccccc23)cc1 [Example 45, N-[2-(2-phenoxyphenyl)ethyl]-4-quinazolinamine] |  |  | - (- = 0-19% control at 400 ppm) | + (+ = 20-89% control at 400 ppm) |  |  |  |  |  |  | + (+ = 20-89% control at 400 ppm) | +++ (+++ = 90-100% control at 100 ppm) | - (- = 0-19% control at 400 ppm) | 0% | 0% | 0% | 0%
CC(C)c1ccc(CCOc2ncnc3ccccc23)cc1 [Example 88, 4-[2-[4-(i-propyl)phenyl]ethoxy]quinazoline] |  | 0% | - (- = 0-19% control at 400 ppm) | +++ (+++ = 90-100% control at 100 ppm) |  | 0% |  | 100% |  | 100% | +++ (+++ = 90-100% control at 100 ppm) | +++ (+++ = 90-100% control at 100 ppm) | +++ (+++ = 90-100% control at 100 ppm) | 100% | 0% | 0% | 0%
Brc1ccc2ncnc(NCCc3ccc(Oc4ccccc4)cc3)c2c1 [Example 177, 6-bromo-N-[2-(4-phenoxyphenyl)ethyl]-4-quinazolinamine] |  | 0% | + (+ = 20-89% control at 400 ppm) | +++ (+++ = 90-100% control at 100 ppm) |  | 0% |  | 0% |  | 80% | - (- = 0-19% control at 400 ppm) | +++ (+++ = 90-100% control at 100 ppm) | +++ (+++ = 90-100% control at 100 ppm) | 0% | 0% | 50% | 50%
Fc1ccc(-c2ccc(CCOc3ncnc4ccccc34)cc2)cc1 [Example 144, 4-[2-(4'-fluoro-1,1'-biphenyl)-4-ylethoxy]quinazoline] |  | 40% | - (- = 0-19% control at 400 ppm) | +++ (+++ = 90-100% control at 100 ppm) |  | 100% |  |  |  | 60% | +++ (+++ = 90-100% control at 100 ppm) | +++ (+++ = 90-100% control at 100 ppm) | +++ (+++ = 90-100% control at 100 ppm) | 0% | 40% | 100% | 100%
Oc1cccc(CCOc2ncnc3ccccc23)c1 [Example 111, 4-[2-(3-hydroxyphenyl)ethoxy]quinazoline] |  | 0% | - (- = 0-19% control at 400 ppm) | + (+ = 20-89% control at 400 ppm) |  | 0% |  | 0% |  | 0% | - (- = 0-19% control at 400 ppm) | + (+ = 20-89% control at 400 ppm) | ++ (++ = 90-100% control at 400 ppm) | 0% | 0% | 0% | 0%
Clc1cccc2c(NCCc3cccc(Oc4ccccc4)c3)ncnc12 [Example 166, 8-chloro-N-[2-(3-phenoxyphenyl)ethyl]-4-quinazolinamine] |  | 0% | - (- = 0-19% control at 400 ppm) | + (+ = 20-89% control at 400 ppm) |  | 0% |  | 0% |  | 0% | + (+ = 20-89% control at 400 ppm) | +++ (+++ = 90-100% control at 100 ppm) | ++ (++ = 90-100% control at 400 ppm) | 0% | 0% | 0% | 60%
CC(COc1ncnc2ccccc12)c1ccc(Oc2ccccc2)cc1 (centres unmarked) [Example 161, 4-[2-(4-phenoxyphenyl)propoxy]quinazoline] |  | 20% | - (- = 0-19% control at 400 ppm) | - (- = 0-19% control at 400 ppm) |  | 0% |  | 70% |  | 30% | + (+ = 20-89% control at 400 ppm) | ++ (++ = 90-100% control at 400 ppm) | + (+ = 20-89% control at 400 ppm) | 100% | 100% | 0% | 0%
Oc1ccccc1CCOc1ncnc2ccccc12 [Example 114, 4-[2-(2-hydroxyphenyl)ethoxy]quinazoline] |  | 0% | - (- = 0-19% control at 400 ppm) | + (+ = 20-89% control at 400 ppm) |  | 0% |  | 0% |  | 60% | - (- = 0-19% control at 400 ppm) | + (+ = 20-89% control at 400 ppm) | - (- = 0-19% control at 400 ppm) | 0% | 0% | 0% | 0%
Cc1cccc2c(OCCc3ccc(C(C)(C)C)cc3)ncnc12 [Example 139, 8-methyl-4-[2-[4-(1,1-dimethylethyl)phenyl]ethoxy]quinazoline] |  | 0% | - (- = 0-19% control at 400 ppm) | ++ (++ = 90-100% control at 400 ppm) |  | 0% |  |  |  | 30% | + (+ = 20-89% control at 400 ppm) | + (+ = 20-89% control at 400 ppm) | +++ (+++ = 90-100% control at 100 ppm) | 0% | 0% | 100% | 0%
